Assay results taken from patent US20250341517A1, “SWITCHING PEPTIDE, IMMUNOASSAY DEVICE COMPRISING SAME, AND IMMUNOASSAY METHOD USING SAME” (OPTOLANE TECHNOLOGIES INC., priority 2021, published 2025).
Ends that are not written are not given here. FAM = carboxyfluorescein (FAM) fluorescent label

Key:
anti-HBsAG antibody [1] = test: Fluorescence immunoassay with FAM switching peptide and TQ2 quenching material (FIGS. 9-12); assay type: binding; conditions: for fluorescence intensity, antigen selectivity: HBsAg
Excerpt: FIG. 9 is a graph illustrating a fluorescence intensity measured after reacting an anti-HBSAG antibody to which an H2 switching peptide of Example 2 and a Tide-Quencher 2 (TQ2) quenching material are bound, with HBsAg, Inf A, Inf B (Florida), Inf B (Tokio), and PBS sample solutions, respectively.
FIG. 10 is a graph illustrating a fluorescence intensity measured after reacting the anti-HBsAG antibody to which the H2 switching peptide of Example 2 and the Tide-Quencher 2 (TQ2) quenching material are bound, with detection sample solutions each containing various concentrations of HBsAg antigens.
FIG. 11 is a graph illustrating a fluorescence intensity measured after binding the anti-HBsAG antibody to which the H2 switching peptide of Example 2 and the Tide-Quencher 2 (TQ2) quenching material are bound, to protein A beads and reacting it with detection sample solutions containing various concentrations of the HBsAg antigens.
FIG. 12 is graphs illustrating a fluorescence intensity measured after reacting the anti-HBsAG antibody to which one of the L1, H1, L2 and H2 switching peptides of Example 2 and the TQ2 quenching material is bound, with HRP, CRP, HBsAg, and hCG sample solutions, respectively.

Anti-CRP antibody(r) = test: Release of fluorescently labeled switching peptide from immobilized antibody on antigen binding (Table 4); design: species or system rabbit
[2] = system: rabbit anti-HRP antibodies; test: Papain treatment of immobilized antibody with bound switching peptide (FIG. 7); assay type: binding; conditions: after papain treatment compared to before
Excerpt: FIG. 7A is a schematic diagram illustrating states before and after treatment of the antibody to which the four types of peptides of Example 1 were bound, respectively, with papain, which is a protease, and FIG. 7B is graphs illustrating a fluorescence intensity measured at a bottom (B) of the microplate and in a solution(S) after the papain treatment. In the case of this experiment, after immobilization of the antibodies (rabbit anti-HRP antibodies) on the microplate, binding between the antibody and the switching peptide was induced by treatment with a fluorescently labeled switching peptide, the unbound switching peptide was removed, and then the Fab region was hydrolyzed from the immobilized antibodies by adding papain, which is a protease.
Referring to FIG. 7A, the fluorescence at the bottom (B) of the microplate is expected to decrease after the papain reaction because the fluorescently labeled switching peptides are bound to the Fab region of antibodies, and the fluorescence in the solution is expected to increase because the Fab region to which the switching peptide is bound is hydrolyzed and dissolved into the solution. This prediction is proven to be true from the graphs of FIG. 7B.

Anti-hCG antibody(m) = test: Release of fluorescently labeled switching peptide from immobilized antibody on antigen binding (Table 4); design: species or system mouse
[3] = system: anti-HRP antibody from a rabbit; test: One-step immunoassay with varying HRP concentration (FIG. 8); assay type: binding; conditions: HRP 0.3 to 100 μM (FIG. 8B)
Excerpt: FIG. 8A is a schematic diagram for explaining an immunoassay method using fluorescently labeled peptide compounds of Example 1, and FIGS. 8B and 8C are graphs illustrating the fluorescence intensity in a solution and at a bottom of the microplate depending on a concentration of the antigen measured by the immunoassay method illustrated in FIG. 8A. In this experiment, an anti-HRP antibody from a rabbit immobilized on a microplate was used as the binding antibody and HRP was used as the antigen.

Anti-HBsAg antibody(g) = test: Release of fluorescently labeled switching peptide from immobilized antibody on antigen binding (Table 4); design: species or system goat; conditions: after treatment with antigen HBsAg
L2 peptide = test: FRET test of specific interaction between H1 and L2 peptides on microplate (FIG. 4A); assay type: binding; conditions: H1 (TAMRA) and L2 (FAM); H1 concentration varied
Excerpt: (§1) FIG. 4A is diagrams illustrating a method for confirming a specific interaction between L1 and H2 peptides and a specific interaction between L2 and H1 peptides and the measurement results thereof, and FIG. 4B is diagrams for explaining a specific interaction between L1 and H2 peptides and a specific interaction between L2 and H1 peptides analyzed using PyMOL software. Here, at the ends of the L1 and L2 peptides, a first fluorescent label, FAM (λex=488 nm, λem=532 nm) was modified, and at the ends of the H1 and H2 peptides, a second fluorescent label, TAMRA (ex=532 nm, hem=570 nm) was modified. Meanwhile, the first peptide (L1 or L2) was immobilized on a parylene-H-coated microplate through a covalent bond between a formyl group of parylene-H and a primary amine group of a lysine residue in the peptide, and a second peptide (H2 or H1) was incubated with the immobilized first peptide (L1 or L2) to allow specific interactions between them.

Anti-HRP antibody(r) = test: Release of fluorescently labeled switching peptide from immobilized antibody on antigen binding (Table 4); design: species or system rabbit; conditions: after treatment with antigen HRP
Inf-A = test: One-step immunoassay detection of Inf-A with switching-peptide-bound binding antibody (FIG. 18, 20B); design: species or system Influenza A; conditions: anti-Inf-A antibody bound to the peptide, treated with Inf-A, CRP, BSA
anti-inf A antibody = test: Graphene-quenched immunoassay with TAMRA L1 switching peptide (FIG. 14); assay type: binding; conditions: L1 labeled with TAMRA; graphene quenching material
Excerpt: FIG. 14 is a graph illustrating a fluorescence intensity measured after binding an anti-inf A antibody to which an L1 switching peptide labeled with a TAMRA fluorescent label is bound, to a graphene quenching material and reacting it with an Influenza A sample solution.

H2 peptide = test: FRET test of specific interaction between L1 and H2 peptides on microplate (FIG. 4A); assay type: binding; conditions: L1 (FAM) and H2 (TAMRA); L1 concentration varied
Excerpt: as §1

Inf-B = test: One-step immunoassay detection of Inf-B with switching-peptide-bound binding antibody (FIG. 19, 20D); conditions: antibody bound to the peptide, treated with Inf-A, CRP, BSA
Excerpt: Therefore, an antibody bound to the L1 peptide or the H2 peptide may be used for selective detection of the Inf-B.
Therefore, binding antibodies bound to the two types of peptides may have similar responses upon detection of Inf-A.
In addition, since it can be confirmed that the baseline is maintained in the experiment with CoV strain 229E, which is a negative control, the immunoassay based on the two types of binding antibodies may be used to detect Inf-B in actual samples.
Therefore, the immunoassay device using the switching peptide according to the present disclosure may sensitively detect Inf-B in a much wider detection range than conventional rapid tests, and the one-step immunoassay method according to the present disclosure may be used for much more sensitive detection of Inf-A and Inf-B in the entire detection range compared to conventional rapid tests.

anti-SARS-COV-2 antibody = test: Graphene-quenched immunoassay with TAMRA L1 switching peptide (FIG. 15); assay type: binding; conditions: L1 labeled with TAMRA; graphene quenching material
Excerpt: FIG. 15 is a graph illustrating a fluorescence intensity measured after binding an anti-SARS-COV-2 antibody to which an L1 switching peptide labeled with a TAMRA fluorescent label is bound, to a graphene quenching material and reacting it with a SARS-CoV-2 sample solution.

anti-HBsAG antibody [4] = test: Graphene-quenched immunoassay with TAMRA L1 switching peptide (FIG. 13); assay type: binding; conditions: L1 labeled with TAMRA; graphene quenching material
Excerpt: FIG. 13 is graphs illustrating a fluorescence intensity measured after binding an anti-HBsAg antibody to which an L1 switching peptide labeled with a TAMRA fluorescent label is bound, to a graphene quenching material and reacting it with an HBsAg sample solution.

[5] = FAM switching peptides of Example 2, TQ2, HRP, CRP, hCG sample solutions (FIG. 12)

Substance | fluorescence intensity, antigen selectivity (anti-HBsAG antibody [1]; TQ2 quencher, Inf A, Inf B (Florida), Inf B (Tokio), PBS sample solutions (FIG. 9)) | fluorescence intensity versus HBsAg concentration (anti-HBsAG antibody [1]; TQ2 quencher, antibody bound to protein A beads (FIG. 11)) | In solution (S), Change (%) (Anti-CRP antibody(r)) | increase of fluorescence intensity in the solution [2] | fluorescence intensity, antigen selectivity (anti-HBsAG antibody [1]; [5]) | In solution (S), Change (%) (Anti-hCG antibody(m)) | fluorescence intensity in the solution versus antigen concentration [3] | fluorescence intensity at the bottom of the plate decreased by (Anti-HBsAg antibody(g)) [%] | FRET intensity (L2 peptide) | fluorescence intensity at the bottom of the plate decreased by (Anti-HRP antibody(r)) [%] | fluorescence signal, selectivity (Inf-A) | fluorescence intensity versus Influenza A antigen concentration (anti-inf A antibody) | FRET intensity (H2 peptide) | fluorescence signal, selectivity (Inf-B) | fluorescence intensity versus SARS-COV-2 antigen concentration (anti-SARS-COV-2 antibody) | fluorescence intensity versus HBsAg concentration (anti-HBsAG antibody [4]) | specificity for the antigen compared with other switching peptides (anti-HBsAG antibody [1]; FAM switching peptides of Example 2, TQ2 (FIG. 12))
FAM-VYYCAREPTGTGIYFDVWGK ({FAM}-VYYCAREPTGTGIYFDVWGK) [H2 switching peptide of Example 2] | high intensity fluorescence was measured only for the HBsAg antigen | increased as the concentration of HBsAg antigens of the detection sample solution increased |  |  |  |  |  |  |  |  |  |  |  |  |  |  | 
SYWIHWVKQRPGQGLEWIGE [H1, SYWIH WVKQR PGQGL EWIGE] |  |  | +152% | 2,184% | high intensity fluorescence was measured only for the HBsAg antigen | +206% | increase in the fluorescence intensity in the solution was observed depending on the concentration of the antigen | 41.1 | FRET intensity was observed to increase with increasing the concentration of the H1 peptide | 12.3 |  |  |  |  |  |  | 
TYLEWYPQKPGQSPKLLIYK [L1, TYLEW YPQKP GQSPK LLIYK] |  |  | +778% | 1,032% | high intensity fluorescence was measured only for the HBsAg antigen | +187% | increase in the fluorescence intensity in the solution was observed depending on the concentration of the antigen | 48.7 |  | 12.7 | significantly higher fluorescence signal is generated when the Inf-A is treated | increased almost linearly as the concentration of the Influenza A antigen contained in the Influenza A sample solution increased | FRET intensity increased with increasing the concentration of the L1 peptide | significantly higher fluorescence signal was generated when the Inf-B is treated | increased as the concentration of the SARS-COV-2 antigen contained in the SARS-COV-2 sample solution increased | increased almost linearly as the concentration of the HBsAg antigen contained in the HBsAg sample solution increased | 
VYYCAREPTGTGIYFDVWGK [H2, VYYCA REPTG TGIYF DVWGK] |  |  | +677% | 2,356% | high intensity fluorescence was measured only for the HBsAg antigen | +416% | increase in the fluorescence intensity in the solution was observed depending on the concentration of the antigen | 63.9 |  | 14.8 | significantly higher fluorescence signal is generated when the Inf-A is treated |  |  | significantly higher fluorescence signal was generated when the Inf-B is treated |  |  | specificity for the antigen was relatively low
VYYCFQGSHVPFTK [L2, VYYCF QGSHV PFTK] |  |  | +883% | 2,452% | high intensity fluorescence was measured only for the HBsAg antigen | +456% | increase in the fluorescence intensity in the solution was observed depending on the concentration of the antigen | 35.2 |  | 25.5 |  |  |  |  |  |  | 
